The record followed here is BindingDB's records for doi:10.1124/mol.64.6.1342 (University of Pittsburgh, 2003).

In assay [1] the target is Protein kinase C alpha type (Homo sapiens, UniProt P17252).
Assay [2] deals with Protein kinase C delta type (Homo sapiens, UniProt Q05655).

“And” between values parts separate entries of the source, which are not always exact repeats. Identical values can stand only once.

Sequence of Protein kinase C delta type (Q05655 whole entry): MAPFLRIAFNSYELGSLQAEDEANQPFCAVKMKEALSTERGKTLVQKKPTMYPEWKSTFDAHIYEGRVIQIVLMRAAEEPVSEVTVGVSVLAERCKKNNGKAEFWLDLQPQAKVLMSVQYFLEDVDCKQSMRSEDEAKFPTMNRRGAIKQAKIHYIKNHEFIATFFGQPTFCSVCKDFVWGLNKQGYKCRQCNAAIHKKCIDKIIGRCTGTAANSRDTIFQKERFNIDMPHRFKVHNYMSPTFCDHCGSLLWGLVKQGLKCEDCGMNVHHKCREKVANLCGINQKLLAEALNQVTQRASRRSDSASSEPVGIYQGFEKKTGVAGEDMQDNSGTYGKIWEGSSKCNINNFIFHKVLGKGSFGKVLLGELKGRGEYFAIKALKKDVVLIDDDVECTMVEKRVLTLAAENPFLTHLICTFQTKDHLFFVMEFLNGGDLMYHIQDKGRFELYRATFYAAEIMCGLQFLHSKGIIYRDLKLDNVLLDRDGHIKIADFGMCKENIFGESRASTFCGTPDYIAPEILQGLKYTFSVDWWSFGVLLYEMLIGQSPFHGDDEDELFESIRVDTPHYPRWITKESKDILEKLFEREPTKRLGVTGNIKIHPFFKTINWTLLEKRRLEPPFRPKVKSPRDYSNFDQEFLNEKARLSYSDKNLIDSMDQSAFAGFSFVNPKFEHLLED

With `CCC(C)(C/C=C1/CC(CO)(COC(=O)CC(C)(CC)C(C)C)OC1=O)C(C)C` (stereo not drawn) [B8-DL-B8 (low PS)], the Ki in assay [1] was 2.9 nM and 3.57 nM; in assay [2], 11.6 nM and 10 nM.
As to `CCCCCCCCc1ccc2c3c(c[nH]c13)CC(CO)NC(=O)C(C(C)C)N2C` (configuration not stated) [CAS_159320], the Ki in assay [1] stood at 0.53 nM; in assay [2], 0.77 nM.
On the same counts, the results for `C=C(C)C12OC3(c4ccccc4)OC1C1C4OC4(CO)C(O)C4(O)C(=O)C(C)=CC4C1(O3)C(C)C2OC(=O)C=CC=Cc1ccccc1` (configuration not stated) [NSC_4179] are 0.27 nM and 0.55 nM.
Consider `CC(C)C1C(=O)NC(CO)Cc2c[nH]c3cccc(c23)N1C` (stereo not drawn) [(-)-Indolactam V (low PS)], for which the Ki is 12.6 nM in assay [1]; 8.16 nM and 43.1 nM in assay [2].
With `CC1=CC2C(O)(CC(CO)=CC3C4C(C)(C)C4(OC(=O)Cc4ccccc4)CC(C)C32O)C1=O` (configuration not stated) [NSC_105100], the Ki in assay [1] was found to be 0.14 nM; in assay [2] it was 0.56 nM.
Consider `C=C(C)C12OC3(c4ccccc4)OC1C1C4OC4(CO)C(O)C4(O)C(=O)C(C)=CC4C1(O3)C(C)C2OC(=O)C=Cc1ccccc1` (configuration not stated) [NSC_6437389], for which the Ki in assay [1] is 0.29 nM and 0.22 nM; in assay [2] it was 1.31 nM and 10.7 nM.
